Source: the NIST ThermoML archive (doi:10.1021/je9004992)

Assay: molar heat capacity at constant pressure
Conditions: Liquid, Small sample (50 mg) DSC

CCCCn1cc[n+](C)c1.F[B-](F)(F)F [1-butyl-3-methylimidazolium tetrafluoroborate]
molar heat capacity at constant pressure [J/K/mol]
Conditions	283.15 K	288.15 K	293.15 K	298.15 K	303.15 K	308.15 K	313.15 K	318.15 K	323.15 K
100 kPa	360.25	362.17	364.16	366.2	368.3	370.45	372.67	374.95	377.29
2000 kPa	360.28	362.2	364.17	366.21	368.31	370.47	372.69	374.97	377.31
4000 kPa	360.31	362.22	364.19	366.23	368.33	370.49	372.71	374.99	377.34
6000 kPa	360.34	362.24	364.21	366.25	368.34	370.5	372.73	375.01	377.36
8000 kPa	360.37	362.27	364.23	366.26	368.36	370.52	372.74	375.03	377.39
10000 kPa	360.39	362.29	364.25	366.28	368.37	370.53	372.76	375.05	377.41
12000 kPa	360.42	362.31	364.27	366.3	368.39	370.55	372.78	375.08	377.44
14000 kPa	360.45	362.34	364.29	366.31	368.4	370.57	372.8	375.1	377.47
20000 kPa	360.54	362.4	364.35	366.36	368.45	370.61	372.85	375.16	377.54
30000 kPa	360.68	362.52	364.44	366.45	368.53	370.69	372.94	375.26	377.67
40000 kPa	360.82	362.64	364.54	366.53	368.61	370.77	373.03	375.37	377.8
50000 kPa	360.96	362.75	364.64	366.61	368.69	370.85	373.12	375.47	377.93
60000 kPa	361.11	362.87	364.73	366.7	368.77	370.93	373.21	375.58	378.05
